Test results taken from PubChem BioAssay (NCI).
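Values below derive from 48-hour exposures of cells grown in 96-well plates, with endpoints linearly interpolated between the two concentrations bracketing the appropriate inhibition level. GI50 = concentration required for 50% inhibition of growth. At the TGI there is no net growth.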

How the values were obtained:
Experiment in all cases: NCI-60 cell line screen, 48 h
[1] = system: M14 melanoma
[2] = system: HT29 colon
[3] = system: SK-MEL-2 melanoma
[4] = system: ACHN renal
[5] = system: TK-10 renal
[6] = system: T-47D breast
[7] = system: UACC-257 melanoma
[8] = system: OVCAR-5 ovarian
[9] = system: MALME-3M melanoma
[10] = system: RXF 393 renal

Compound	GI50 [1] [µM]	TGI [1] [µM]	GI50 [2] [µM]	TGI [2] [µM]	GI50 [3] [µM]	TGI [3] [µM]	GI50 [4] [µM]	TGI [4] [µM]	GI50 [5] [µM]	TGI [5] [µM]	GI50 [6] [µM]	TGI [6] [µM]	GI50 [7] [µM]	TGI [7] [µM]	GI50 [8] [µM]	TGI [8] [µM]	GI50 [9] [µM]	TGI [9] [µM]	GI50 [10] [µM]	TGI [10] [µM]
Clc1ccc(Nc2ccnc(NCCNc3ccnc4cc(Cl)ccc34)n2)cc1	1.4	3.09	0.615	2.07	1.96	3.5	1.63	3.09	1.76	3.17	1.15	3.05	1.68	3.17	1.16	2.45	1.74	3.48		
COc1cc(-c2cc(C(=O)Nc3nc4ccccc4s3)nc3cc(-c4ccccc4)nn23)cc(OC)c1OC	2.39	> 100			11.2	27.7	45.7	> 100	11.9	32.7	21.4	> 100			> 100	> 100	12.4	56.2	6.22	22.1
C=C(CN1CCc2ccccc2C1)c1ccc(/C=C/C(=O)Nc2ccccc2N)cc1			59.9	> 100	7.51	> 100	5.4	> 100	3.88	26.9	10.5	> 100	1.3	28	12.8	> 100	0.309	8.04	12.1	> 100
O=C(CCl)Nc1ccccc1SCc1cc(Cl)cc2c1OCOC2	4.68	16.8	4.27	14.5	11.4	24.8	10.6	23.8	16.9	31.4	9.82	45.2			13.5	27.7	2.3	5.96	7.24	20.9
CC1=C(C(=O)Nc2ccc(F)c(Cl)c2)C(c2cccc(O)c2)NC(=S)N1 (configuration not stated)	14.7	> 50			20.3	> 50	24.5	> 50	> 50	> 50	> 50	> 50	16.5	44.4	17	> 50			14	30.5
CS(=O)(=O)c1ccc(Oc2nccc(-c3c(-c4ccc(F)cc4)ncn3C3CCNCC3)n2)cc1	> 25	> 25	> 22.2	> 25	> 25	> 25	> 25	> 25	> 25	> 25	> 25	> 25			> 25	> 25	> 25	> 25	> 25	> 25
COc1ccc(-c2nc3sccn3c2/C=C/C(=O)c2cc(OC)c(OC)c(OC)c2)cc1OC	3.1	9.3	3.48	9.88	1.87	4.65	3.24	> 100	4.8	> 100	1.72	5.83	2.65	7.17	2.45	7.02	3.33	54.1		
COc1cccc2c(Nc3ccc(C(=O)NCCNCCO)cc3)cc(-c3ccccc3)nc12	26.9	74.7	36	> 100	19.5	40.8			30.2	> 100	23	62	39	> 100	76.7	> 100	21	37.9	33.1	93.1
c1ccc(Oc2c3ccccc3nc3ccccc23)cc1	3.4	10.7	0.48	2.83	3.95	17.6	3.61	13.7			2.81	10.9	9.59	26.3	3.7	13.7	2.15	8.71	3.6	15.1
CCOC(=O)c1sc2ncn(Cc3cccc(Cl)c3)c(=O)c2c1C	15.4	28.7	19.3	33.4	15.1	29.1	14.7	27.9			15.6	29	15.6	29.3	17.4	31.2			16.6	30.2
COc1cc(/C=C2\CC(C)CC3C2=NN(c2ccccc2)C3c2cc(OC)c(OC)c(OC)c2)cc(OC)c1OC (configuration not stated)	14.9	52.1	11.1	39.9	15.6	93	11	44.6	24.3	93.3	4.07	31.7	20.4	> 100	53.7	> 100	21.3	> 100		
